Laboratory results from patent publication US20090298857A1, “Treatment of Neurodegenerative Diseases Through Inhibition of HSP90” (SLOAN-KETTERING INSTITUTE FOR CANCER RESEARCH, priority 2006, published 2009).

System: human TauP301L in JNPL3 mouse brain
Assay: One dose PU-DZ8 in JNPL3 mice, soluble (S1) and insoluble (P3) Tau
Type: in vivo
Conditions: 75 mg/kg i.p.
Procedure: To investigate whether the human TauP301L present in the JNPL3 line of mice is a sensitive target for Hsp90 inhibition, animals were treated with the brain-barrier permeable Hsp90 inhibitor PU-DZ8. This agent is a higher-potency water soluble derivative of PU24FC1 (EC50JNPL3 brain Hsp90=70 nM). One dose of PU-DZ8 (75 mg/kg) was administered intraperitoneally (i.p.) to female mice of 2.5-4 months in age (n=32) and animals were sacrificed in the interval of 0 to 36 h. Both aggregate-free Tau (S1) and insoluble Tau (P3) fractions were prepared from the subcortical and cortical regions of these mice. Human Tau levels were assessed by immunobloting with a human specific anti-Tau antibody (HT-7). […] We next examined in a 4- to 6-month old mouse group (n=15) whether the stability of mTau as present in tau aggregates (P3 fraction) was additionally regulated by Hsp90.
For experiments designed to test the kinetics of mTau and p35 modulation by Hsp90 inhibitors, animals were administered intraperitoneally (i.p.) 75 mg/kg PU-DZ8 in PBS (6% DMSO). Mice were sacrificed by CO2 euthanasia at the indicated times following PU-DZ8 administration. Hemibrains were separated into cortico-limbic (cortex, amygdale and hippocampus) and subcortical (basal ganglia, diencephalon, brain stem and cerebellum) regions, quickly frozen on dry ice and stored at −80° C. and processed. In summary, each brain piece was weighed and homogenized in three volumes of Tris-buffered saline (TBS) containing protease and phosphatase inhibitors (25 mM Tris-HCl, pH 7.4, 150 mM NaCl, 1 mM EDTA, 1 mM EGTA, 5 mM sodium pyrophosphate, 30 mM p-glycerophosphate, 30 mM sodium fluoride. 1 mM phenylmethylsulfonyl fluoride (PMSF)). The homogenates were centrifuged at 27,000 g for 15 min at 4° C. Supernatants were collected as S1 fractions, and the pellets (P1) were re-homogenized in three volumes of salt/sucrose buffer (0.8 M NaCl, 10% sucrose, 10 mM Tris/HCl, pH 7.4, 1 mM EGTA, 1 mM PMSF) and centrifuged as above. The resulting pellets were discarded and the supernatants were incubated with sarkosyl (Sigma, St Louis, Mo., USA; 1% final concentration) for 1 h at 37° C. The sarkosyl mixtures were then centrifuged at 150,000 g for 30 min at 4° C. The supernatants (S2 fraction) were collected, and the pellets (P3) were resuspended in 50 μL 2% SDS in TBS and stored at −80° C. for western blotting. Proteins were analyzed by Western blot.

CC(C)NCCCn1c(Cc2cc3c(cc2I)OCO3)nc2c(N)nc(F)nc21 [PU-DZ8]
cdk5 expression: No significant changes | expressions of Akt and Raf-1: not altered | insoluble and hyperphosphorylated Tau (P3 fraction) (4- to 6-month old mice): significant reduction | soluble precursor pool mTau (S1), subcortical brain regions (4 h (P=0.0031), maintained up to 36 h): significant decrease
